From ChEMBL document CHEMBL1201862, “PubChem BioAssay data set” (2004)
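Briefly, cells in 96-well plates were exposed to five compound concentrations for 48 h, and endpoints were estimated by linear interpolation. At the GI50, growth is halved.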 Calls of active or inactive are those of the source. Cut-off read from the data, not from the text of the source: active = GI50 up to about 1.1 µM and inactive = higher.

Columns and labels:
Test in all cases: NCI anticancer screen, dose series, 48 h
MDA-MB-231 = test system: MDA-MB-231
RXF 393 = test system: RXF 393
HCC 2998 = test system: HCC 2998
SK-MEL-28 = test system: SK-MEL-28
OVCAR-8 = test system: OVCAR-8
SW-620 = test system: SW-620
EKVX = test system: EKVX
SNB-19 = test system: SNB-19
CAKI-1 = test system: CAKI-1
MDA-N = test system: MDA-N
SK-MEL-5 = test system: SK-MEL-5
MCF7 = test system: MCF7
UACC-257 = test system: UACC-257
K562 = test system: K562
NCI-H460 = test system: NCI-H460
NCI/ADR-RES = test system: NCI/ADR-RES

SMILES	GI50 (MDA-MB-231)	GI50 (RXF 393)	GI50 (HCC 2998)	GI50 (SK-MEL-28)	GI50 (OVCAR-8)	GI50 (SW-620)	GI50 (EKVX)	GI50 (SNB-19)	GI50 (CAKI-1)	GI50 (MDA-N)	GI50 (SK-MEL-5)	GI50 (MCF7)	GI50 (UACC-257)	GI50 (K562)	GI50 (NCI-H460)	GI50 (NCI/ADR-RES)
C=C1CC2(CC(c3ccccc3Cl)OC(c3ccccc3Cl)C2)OC1=O (stereo not drawn)	1.85 µM (inactive)	2.12 µM (inactive)	3.52 µM (inactive)	1.87 µM (inactive)	2.11 µM (inactive)	1.98 µM (inactive)	8.34 µM (inactive)	15.2 µM (inactive)	2 µM (inactive)	1.87 µM (inactive)	4.3 µM (inactive)	2.11 µM (inactive)	2.08 µM (inactive)	2.26 µM (inactive)	5.08 µM (inactive)	3.57 µM (inactive)
COC(=O)c1ccc(/C=C2\Oc3ccccc3C2=O)cc1	> 100 µM (inactive)	> 100 µM (inactive)	> 100 µM (inactive)	> 100 µM (inactive)	> 100 µM (inactive)	> 100 µM (inactive)	> 100 µM (inactive)	> 100 µM (inactive)	41.2 µM (inactive)	> 100 µM (inactive)	> 100 µM (inactive)	> 100 µM (inactive)	> 100 µM (inactive)	> 10 µM (inactive)	> 100 µM (inactive)	> 100 µM (inactive)
O=P(O)(O)CN1CCNCCN(CP(=O)(O)O)CC1	36 µM (inactive)	28.8 µM (inactive)	12.3 µM (inactive)	> 100 µM (inactive)	28.4 µM (inactive)	19.3 µM (inactive)	> 80.2 µM (inactive)	> 100 µM (inactive)	> 90.6 µM (inactive)	13.6 µM (inactive)	14 µM (inactive)	8.79 µM (inactive)	> 55.3 µM (inactive)	6.32 µM (inactive)	11.3 µM (inactive)	> 19.9 µM (inactive)
Nc1ccccc1N/C(=C\C(=O)C(Cl)(Cl)Cl)c1ccccc1	15.2 µM (inactive)	19.1 µM (inactive)	17.3 µM (inactive)	35.5 µM (inactive)	30.5 µM (inactive)	28.8 µM (inactive)	15.2 µM (inactive)	36.9 µM (inactive)	34.5 µM (inactive)	18.1 µM (inactive)	15 µM (inactive)	23.7 µM (inactive)	23.9 µM (inactive)	30.2 µM (inactive)	25.9 µM (inactive)	29.2 µM (inactive)
c1ccc2c(c1)nc1n2C2CCC(C2)N1 (stereo not drawn)	> 10 µM (inactive)	> 10 µM (inactive)	> 10 µM (inactive)	> 10 µM (inactive)	> 10 µM (inactive)	> 10 µM (inactive)	> 10 µM (inactive)	> 10 µM (inactive)	> 10 µM (inactive)	> 10 µM (inactive)	> 10 µM (inactive)	> 10 µM (inactive)	> 10 µM (inactive)	> 10 µM (inactive)	> 10 µM (inactive)	> 10 µM (inactive)
CCOC(=O)C1CCC/C1=N\NC(=N)N.Cc1cc(O)c(C(C)C)cc1S(=O)(=O)O (stereo not drawn)	> 100 µM (inactive)	> 100 µM (inactive)	> 100 µM (inactive)	> 100 µM (inactive)	> 100 µM (inactive)	> 100 µM (inactive)	> 100 µM (inactive)	> 100 µM (inactive)	–	> 100 µM (inactive)	> 100 µM (inactive)	> 100 µM (inactive)	> 100 µM (inactive)	> 100 µM (inactive)	> 100 µM (inactive)	> 100 µM (inactive)
N=C1C=C(N)C(=O)c2[nH]c(=O)ccc21	1.91 µM (inactive)	1.87 µM (inactive)	19.3 µM (inactive)	20.6 µM (inactive)	–	2.88 µM (inactive)	1.92 µM (inactive)	2.02 µM (inactive)	5.16 µM (inactive)	1.01 µM (active)	1.8 µM (inactive)	0.351 µM (active)	5.07 µM (inactive)	1.91 µM (inactive)	2.92 µM (inactive)	2.27 µM (inactive)
O=C(NO)NCCCl	> 100 µM (inactive)	> 100 µM (inactive)	> 100 µM (inactive)	–	> 100 µM (inactive)	> 100 µM (inactive)	> 100 µM (inactive)	> 100 µM (inactive)	> 100 µM (inactive)	> 100 µM (inactive)	> 100 µM (inactive)	> 100 µM (inactive)	> 100 µM (inactive)	> 100 µM (inactive)	> 100 µM (inactive)	> 100 µM (inactive)
CCOC(=O)C(C(=O)OCC)C1C=CCC2c3ccccc3COCC21 (stereo not drawn)	> 100 µM (inactive)	> 100 µM (inactive)	52.5 µM (inactive)	55.7 µM (inactive)	44.2 µM (inactive)	52.7 µM (inactive)	40.5 µM (inactive)	> 100 µM (inactive)	26.5 µM (inactive)	40.7 µM (inactive)	19.1 µM (inactive)	31.8 µM (inactive)	30.3 µM (inactive)	41.9 µM (inactive)	62.1 µM (inactive)	28.2 µM (inactive)
Cc1ccc(S(=O)(=O)[C@@H](Cl)[C@H]2N=C(Cl)NN=C2c2ccccc2)cc1	20.1 µM (inactive)	18.6 µM (inactive)	33.8 µM (inactive)	19.4 µM (inactive)	21.1 µM (inactive)	17.2 µM (inactive)	37.1 µM (inactive)	37.8 µM (inactive)	41.9 µM (inactive)	26.1 µM (inactive)	15.4 µM (inactive)	26.9 µM (inactive)	20.6 µM (inactive)	29.5 µM (inactive)	37.1 µM (inactive)	21.4 µM (inactive)
C=CCn1c(-c2ccc(-c3cs/c(=N\N=O)n3CC=C)cc2)cs/c1=N\N=O	23.4 µM (inactive)	19.1 µM (inactive)	> 100 µM (inactive)	> 100 µM (inactive)	88.1 µM (inactive)	> 100 µM (inactive)	> 100 µM (inactive)	> 100 µM (inactive)	> 100 µM (inactive)	> 100 µM (inactive)	> 100 µM (inactive)	> 100 µM (inactive)	> 100 µM (inactive)	> 100 µM (inactive)	> 100 µM (inactive)	> 100 µM (inactive)
N#Cc1cccc(Nc2ccccc2SSc2ccccc2Nc2cccc(C#N)c2)c1	12.2 µM (inactive)	> 10 µM (inactive)	16.6 µM (inactive)	13.3 µM (inactive)	8.11 µM (inactive)	3.48 µM (inactive)	13.9 µM (inactive)	7.76 µM (inactive)	9.02 µM (inactive)	9.23 µM (inactive)	9.04 µM (inactive)	7.52 µM (inactive)	13.6 µM (inactive)	5.12 µM (inactive)	7.71 µM (inactive)	8.79 µM (inactive)
COC(=O)C1=C(C(=O)OC)N(c2ccc(OC)cc2[N+](=O)[O-])C(c2ccc(C)cc2)=CC1c1ccc(OC)cc1OC (stereo not drawn)	23.3 µM (inactive)	5.25 µM (inactive)	8.28 µM (inactive)	64.3 µM (inactive)	13.6 µM (inactive)	3.88 µM (inactive)	34.5 µM (inactive)	34.7 µM (inactive)	28 µM (inactive)	4.62 µM (inactive)	26.2 µM (inactive)	4.05 µM (inactive)	23.1 µM (inactive)	3.16 µM (inactive)	24.5 µM (inactive)	22.9 µM (inactive)
O=C(O)CC(C(=O)O)c1ccccc1[N+](=O)[O-] (stereo not drawn)	> 100 µM (inactive)	> 100 µM (inactive)	> 100 µM (inactive)	> 100 µM (inactive)	> 100 µM (inactive)	> 100 µM (inactive)	> 100 µM (inactive)	> 100 µM (inactive)	> 100 µM (inactive)	> 100 µM (inactive)	> 100 µM (inactive)	> 100 µM (inactive)	> 100 µM (inactive)	> 100 µM (inactive)	> 100 µM (inactive)	> 100 µM (inactive)
c1ccc2nc(CCC3CCCCN3)ccc2c1 (stereo not drawn)	> 100 µM (inactive)	> 100 µM (inactive)	> 100 µM (inactive)	> 100 µM (inactive)	> 100 µM (inactive)	> 100 µM (inactive)	42.2 µM (inactive)	> 100 µM (inactive)	> 100 µM (inactive)	87.7 µM (inactive)	38.2 µM (inactive)	> 100 µM (inactive)	42.7 µM (inactive)	47.4 µM (inactive)	87.9 µM (inactive)	49.5 µM (inactive)
CC(=O)Nc1ccc2c3c(cc(O)c2c1)N(C(=O)CCCCCCC(=O)N1CC(CCl)c2c1cc(O)c1cc(NC(C)=O)ccc21)CC3CCl (stereo not drawn)	0.0203 µM (active)	< 0.01 µM (active)	< 0.01 µM (active)	0.0148 µM (active)	< 0.01 µM (active)	0.0151 µM (active)	0.0505 µM (active)	< 0.01 µM (active)	< 0.0152 µM (active)	< 0.01 µM (active)	< 0.01 µM (active)	< 0.01 µM (active)	0.0104 µM (active)	< 0.0125 µM (active)	< 0.01 µM (active)	0.673 µM (active)
CCn1c2ccccc2c2cc(Nc3cc(C)[nH]c(=O)n3)ccc21	> 100 µM (inactive)	> 100 µM (inactive)	> 100 µM (inactive)	> 100 µM (inactive)	> 100 µM (inactive)	> 100 µM (inactive)	> 100 µM (inactive)	> 100 µM (inactive)	> 100 µM (inactive)	0.394 µM (active)	–	> 100 µM (inactive)	> 100 µM (inactive)	0.47 µM (active)	> 100 µM (inactive)	> 100 µM (inactive)
